Reference: ChEMBL document CHEMBL1129833, “N-Phthalimidoalkyl derivatives of 2-carbomethoxy-3-(4-iodophenyl)tropane (-CIT): Brain monoamine transporter affinity” (Bioorg Med Chem Lett, 1997)

Columns and labels:
Assay type in all cases: tissue-based
[1] = molecular target: Sodium-dependent serotonin transporter (Rattus norvegicus, UniProt P31652); experiment: In vitro binding affinity of compound for Serotonin transporter with [3H]- paroxetine as radioligand in corpus striatum tissue from rat forebrain
[2] = molecular target: Norepinephrine transporter (Rattus norvegicus, UniProt Q9WTR4); experiment: In vitro binding affinity of compound for Norepinephrine (NE) transporter with [3H]- […] as radioligand in corpus striatum tissue from rat forebrain
[3] = molecular target: Sodium-dependent dopamine transporter (Rattus norvegicus, UniProt P23977); experiment: In vitro binding affinity of compound for Dopamine transporter with [3H]- GBR-12935 as radioligand in corpus striatum tissue from rat forebrain
Chain of Sodium-dependent dopamine transporter (P23977 whole entry): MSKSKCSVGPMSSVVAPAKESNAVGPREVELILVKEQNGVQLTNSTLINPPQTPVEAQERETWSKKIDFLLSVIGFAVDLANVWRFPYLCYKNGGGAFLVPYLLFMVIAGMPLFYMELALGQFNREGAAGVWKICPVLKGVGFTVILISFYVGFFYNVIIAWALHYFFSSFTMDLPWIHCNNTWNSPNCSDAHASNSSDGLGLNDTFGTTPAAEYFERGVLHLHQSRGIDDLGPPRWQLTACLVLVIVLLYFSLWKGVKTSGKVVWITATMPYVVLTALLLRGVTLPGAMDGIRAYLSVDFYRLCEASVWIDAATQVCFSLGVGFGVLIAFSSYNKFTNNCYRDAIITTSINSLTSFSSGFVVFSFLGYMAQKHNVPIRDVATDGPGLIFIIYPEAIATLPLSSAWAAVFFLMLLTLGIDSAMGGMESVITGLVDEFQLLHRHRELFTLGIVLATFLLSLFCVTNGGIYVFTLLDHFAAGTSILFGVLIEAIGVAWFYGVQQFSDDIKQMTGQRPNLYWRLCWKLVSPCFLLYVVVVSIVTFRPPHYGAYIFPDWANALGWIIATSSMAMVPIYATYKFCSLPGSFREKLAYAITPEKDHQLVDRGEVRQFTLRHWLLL

Chain of Sodium-dependent serotonin transporter (P31652 whole entry): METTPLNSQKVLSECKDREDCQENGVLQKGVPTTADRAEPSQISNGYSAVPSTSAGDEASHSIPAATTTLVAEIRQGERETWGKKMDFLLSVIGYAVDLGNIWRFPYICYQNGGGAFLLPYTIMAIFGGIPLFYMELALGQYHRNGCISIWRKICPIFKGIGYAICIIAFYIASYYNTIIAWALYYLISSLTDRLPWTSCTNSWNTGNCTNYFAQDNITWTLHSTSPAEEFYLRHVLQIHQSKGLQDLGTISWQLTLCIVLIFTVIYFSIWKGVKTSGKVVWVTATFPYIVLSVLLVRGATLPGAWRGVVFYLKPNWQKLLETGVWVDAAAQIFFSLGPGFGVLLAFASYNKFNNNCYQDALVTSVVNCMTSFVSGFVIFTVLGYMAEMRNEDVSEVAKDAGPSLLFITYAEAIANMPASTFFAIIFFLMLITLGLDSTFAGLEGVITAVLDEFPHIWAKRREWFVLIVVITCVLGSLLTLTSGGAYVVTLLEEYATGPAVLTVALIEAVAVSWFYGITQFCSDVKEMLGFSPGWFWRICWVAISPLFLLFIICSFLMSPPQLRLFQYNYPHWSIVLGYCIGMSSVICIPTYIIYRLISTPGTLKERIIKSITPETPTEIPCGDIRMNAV
Chain of Norepinephrine transporter (Q9WTR4 whole entry): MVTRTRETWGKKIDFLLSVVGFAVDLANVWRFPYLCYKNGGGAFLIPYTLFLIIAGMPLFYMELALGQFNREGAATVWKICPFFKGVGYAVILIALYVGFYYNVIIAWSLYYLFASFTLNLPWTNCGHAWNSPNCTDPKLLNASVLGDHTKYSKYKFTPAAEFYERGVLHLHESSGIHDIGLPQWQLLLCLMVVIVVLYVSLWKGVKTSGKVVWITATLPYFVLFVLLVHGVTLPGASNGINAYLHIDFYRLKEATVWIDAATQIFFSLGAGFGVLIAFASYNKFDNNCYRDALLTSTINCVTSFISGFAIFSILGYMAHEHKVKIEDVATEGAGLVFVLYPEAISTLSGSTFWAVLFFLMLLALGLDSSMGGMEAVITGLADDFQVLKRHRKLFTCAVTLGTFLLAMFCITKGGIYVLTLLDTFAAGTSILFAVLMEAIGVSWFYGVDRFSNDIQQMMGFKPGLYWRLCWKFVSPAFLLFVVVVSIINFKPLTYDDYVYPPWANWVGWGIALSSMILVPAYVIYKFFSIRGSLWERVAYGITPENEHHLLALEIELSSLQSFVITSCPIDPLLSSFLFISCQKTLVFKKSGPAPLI

| Structure (SMILES) | Ki [1] | Ki [2] | Ki [3] |
| --- | --- | --- | --- |
| COC(=O)C1C2CC[C@H](C[C@@H]1c1ccc(I)cc1)N2C (stereo partly drawn) | 0.44 nM | – | – |
| COC(=O)C1C2CC[C@H](C[C@@H]1c1ccc(I)cc1)N2CCN1C(=O)c2ccccc2C1=O (stereo partly drawn) | 0.84 nM | 441 nM | 4.23 nM |
| COC(=O)C1C2CC[C@H](C[C@@H]1c1ccc(I)cc1)N2CCCCCCCCN1C(=O)c2ccccc2C1=O (stereo partly drawn) | 0.2 nM | 75 nM | 2.98 nM |
| COC(=O)C1C2CC[C@@H](C[C@@H]1c1ccc(I)cc1)N2CCCCN1C(=O)c2ccccc2C1=O (stereo partly drawn) | 0.21 nM | 190 nM | 2.38 nM |
| COC(=O)C1C2CC[C@H](C[C@@H]1c1ccc(I)cc1)N2CCCCCN1C(=O)c2ccccc2C1=O (stereo partly drawn) | 0.34 nM | 60 nM | 2.4 nM |
